US10118916B2, “Modulators of cystic fibrosis transmembrane conductance regulator protein” (AbbVie S.à.r.l., priority 2016, dated 2018)
pEC50: −log10 of the molar value.

Target: T1, F508delCFTR (Homo sapiens, UniProt P13569, DEL508-508)
T1 construct: expressed in transfected cells; host or cells: CFBE41o- (human lung derived epithelial cell line), doxycycline-inducible
Assay: Cell Surface Expression-Horse Radish Peroxidase (CSE-HRP) assay
Assay type: cell-based
Conditions: CFBE41o-F508delCFTR-HRP cells; for pEC50: F508delCFTR cell surface expression, luminescence, 18-24 hours at 33° C., highest concentration 20 μM; for Maximum % activity: maximum at any tested concentration, normalized to on-plate positive control (3 μM)
Text: Cell Surface Expression-Horse Radish Peroxidase (CSE-HRP) Assay:
A cellular assay for measuring the F508delCFTR cell surface expression after correction with test compounds was developed in human lung derived epithelial cell line (CFBE41o-) (Veit G et al, (2012) Mol Biol Cell. 23(21): 4188-4202). This was achieved by expressing the F508delCFTR mutation along with a horseradish peroxidase (HRP) in the fourth exofacial loop and then measuring the HRP activity using luminescence readout from these cells, CFBE41o-F508delCFTR-HRP, that were incubated overnight with the test corrector compounds. Briefly, for this primary assay, the CFBE41o-F508delCFTR-HRP cells were plated in 384-well plates (Greiner Bio-one; Cat 781080) at 4,000 cells/well along with 0.5 μg/mL doxycycline to induce the F508delCFTR-HRP expression and further incubated at 37° C., 5% CO2 for 72 hours. The test compounds were then added at the required concentrations and further incubated for 18-24 hours at 33° C. The highest concentration tested was 20 μM with an 8-point concentration response curve using a 3-fold dilution. Three replicate plates were run to determine one EC50. All plates contained negative controls (dimethyl sulfoxide, DMSO) and positive controls (3 μM of 3-[(2R,4R)-4-({[1-(2,2-difluoro-1,3-benzodioxol-5-yl)cyclopropyl]carbonyl}amino)-7-methoxy-3,4-dihydro-2H-chromen-2-yl]benzoic acid) as well as on-plate concentration response of the positive control. Post incubation, the plates were washed 5× times with Dulbecco's phosphate buffered saline (DPBS), followed by the addition of the HRP substrate, luminol (50 μL), and measuring the HRP activity using luminescence readout on EnVision® Multilabel Plate Reader (Perkin Elmer; product number 2104-0010). The raw counts from the experiment are analyzed using Accelrys® Assay Explorer v3.3.
Z′ greater than 0.5 was used as passing quality control criteria for the plates.
The Z′ is defined as: 1−[3*SDPositive Control+3*SDNegative Control/Absolute(MeanPositive Control−MeanNegative Control)] wherein “SD” is standard deviation.
The % activity measured at each of the 8 test concentrations of the test compound was normalized to the on-plate positive control using the following formula: % activity=[(test compound response−DMSO response)/(positive control response−DMSO response)]*100
The maximum % activity achieved for the test compound at any tested concentration is presented in Table 1 along with the EC50 calculated using the following general sigmoidal curve with variable Hill slope equation (described as Model 42 in the Accelrys® Assay Explorer v3.3 software): y=(a−d)/(1+(x/c)^b)+d
General sigmoidal curve with concentration, response, top, bottom, EC50 and Hill slope.
This model describes a sigmoidal curve with an adjustable baseline, a. The equation can be used to fit curves where response is either increasing or decreasing with respect to the independent variable, “x”. • “x” is a concentration of drug under test. • “y” is the response. • “a” is the maximum response, and “d” is the minimum response • “c” is the inflection point (EC50) for the curve. That is, “y” is halfway between the lower and upper asymptotes when x=c. • “b” is the slope-factor or Hill coefficient. The sign of b is positive when the response increases with increasing dose and is negative when the response decreases with increasing dose (inhibition).

T1 sequence (P13569 with tags, fused parts or gaps DEL508-508): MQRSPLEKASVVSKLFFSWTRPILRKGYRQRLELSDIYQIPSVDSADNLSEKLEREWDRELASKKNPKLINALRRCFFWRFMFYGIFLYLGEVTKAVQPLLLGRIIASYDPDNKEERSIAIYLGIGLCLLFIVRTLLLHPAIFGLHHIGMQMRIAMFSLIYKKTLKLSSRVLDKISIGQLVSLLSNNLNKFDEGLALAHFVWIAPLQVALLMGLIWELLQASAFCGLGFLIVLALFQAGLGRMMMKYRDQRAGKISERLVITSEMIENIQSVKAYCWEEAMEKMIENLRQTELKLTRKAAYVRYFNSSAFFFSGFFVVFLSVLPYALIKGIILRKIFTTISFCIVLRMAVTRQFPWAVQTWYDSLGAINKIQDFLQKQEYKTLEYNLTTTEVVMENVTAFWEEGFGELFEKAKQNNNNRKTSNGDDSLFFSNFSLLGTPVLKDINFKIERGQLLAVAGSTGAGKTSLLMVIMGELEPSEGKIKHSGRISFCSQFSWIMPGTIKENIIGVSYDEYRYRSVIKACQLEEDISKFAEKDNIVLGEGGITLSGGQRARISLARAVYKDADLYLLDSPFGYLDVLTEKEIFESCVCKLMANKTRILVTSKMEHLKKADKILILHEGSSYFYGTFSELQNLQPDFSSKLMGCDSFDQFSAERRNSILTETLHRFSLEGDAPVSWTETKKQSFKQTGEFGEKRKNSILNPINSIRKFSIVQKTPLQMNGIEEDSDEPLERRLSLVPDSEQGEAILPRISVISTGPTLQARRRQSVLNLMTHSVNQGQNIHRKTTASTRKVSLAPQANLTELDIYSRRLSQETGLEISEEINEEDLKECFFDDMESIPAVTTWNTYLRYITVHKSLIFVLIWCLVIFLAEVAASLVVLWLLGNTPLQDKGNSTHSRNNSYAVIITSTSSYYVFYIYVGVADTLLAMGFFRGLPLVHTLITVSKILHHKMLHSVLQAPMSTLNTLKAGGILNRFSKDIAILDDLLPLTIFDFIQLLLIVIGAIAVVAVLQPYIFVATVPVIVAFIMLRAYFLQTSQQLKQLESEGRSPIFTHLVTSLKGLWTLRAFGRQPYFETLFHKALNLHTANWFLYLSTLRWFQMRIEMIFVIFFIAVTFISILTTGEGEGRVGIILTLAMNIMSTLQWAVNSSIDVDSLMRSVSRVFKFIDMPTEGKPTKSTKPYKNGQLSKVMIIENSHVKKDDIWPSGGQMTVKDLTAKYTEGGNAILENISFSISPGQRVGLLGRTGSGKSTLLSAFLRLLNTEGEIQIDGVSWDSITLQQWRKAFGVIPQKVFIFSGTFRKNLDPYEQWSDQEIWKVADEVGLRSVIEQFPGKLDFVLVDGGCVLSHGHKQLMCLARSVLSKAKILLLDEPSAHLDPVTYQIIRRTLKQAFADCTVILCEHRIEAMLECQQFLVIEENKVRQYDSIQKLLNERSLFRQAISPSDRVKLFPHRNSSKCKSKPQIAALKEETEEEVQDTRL

Row | pEC50 | Maximum % activity | Structure (SMILES)
1 | 6.55 | 28.3% | COc1ccc2c(c1)O[C@@H](c1cccc(C(=O)O)c1)C[C@H]2NC(=O)C1(c2ccc(Cl)cc2)CC1 [Example 42, 3-[(2R,4R)-4-{[1-(4-chlorophenyl)cyclopropane-1-carbonyl]amino}-7-methoxy-3,4-dihydro-2H-1-benzopyran-2-yl]benzoic acid]
2 | 6.55 | 39.1% | COc1ccc2c(c1)O[C@@H](c1cccc(C(=O)O)c1)C[C@H]2NC(=O)C1(c2ccc(Br)cc2)CC1 [Example 43, 3-[(2R,4R)-4-{[1-(4-bromophenyl)cyclopropane-1-carbonyl]amino}-7-methoxy-3,4-dihydro-2H-1-benzopyran-2-yl]benzoic acid]
3 | 7.00 | 35.3% | COc1ccc(C2(C(=O)N[C@@H]3C[C@H](c4cccc(C(=O)O)c4)Oc4cc(OC)ccc43)CC2)cc1 [Example 44, 3-[(2R,4R)-7-methoxy-4-{[1-(4-methoxyphenyl)cyclopropane-1-carbonyl]amino}-3,4-dihydro-2H-1-benzopyran-2-yl]benzoic acid]
4 | < 4.70 | 15.3% | COc1ccc2c(c1)O[C@@H](c1cccc(C(=O)O)c1)C[C@H]2NC(=O)C(C)(C)Oc1ccc(Cl)cc1 [Example 45, 3-{(2R,4R)-4-[2-(4-chlorophenoxy)-2-methylpropanamido]-7-methoxy-3,4-dihydro-2H-1-benzopyran-2-yl}benzoic acid]
5 | < 4.70 | 1.1% | COc1cccc2c1[C@@](C)(C(=O)N[C@@H]1C[C@H](c3cccc(C(=O)O)c3)Oc3ccccc31)CC2 [Example 46, 3-[(2R,4R)-4-{[(1S)-7-methoxy-1-methyl-2,3-dihydro-1H-indene-1-carbonyl]amino}-3,4-dihydro-2H-1-benzopyran-2-yl]benzoic acid]
6 | 5.97 | 38.2% | COc1ccc2c(c1)[C@@](C)(C(=O)N[C@@H]1C[C@H](c3cccc(C(=O)O)c3)Oc3ccccc31)CC2 [Example 47, 3-[(2R,4R)-4-{[(1S)-6-methoxy-1-methyl-2,3-dihydro-1H-indene-1-carbonyl]amino}-3,4-dihydro-2H-1-benzopyran-2-yl]benzoic acid]
7 | < 4.70 | 4.5% | COc1ccc2c(c1)[C@](C)(C(=O)N[C@@H]1C[C@H](c3cccc(C(=O)O)c3)Oc3ccccc31)CC2 [Example 48, 3-[(2R,4R)-4-{[(1R)-6-methoxy-1-methyl-2,3-dihydro-1H-indene-1-carbonyl]amino}-3,4-dihydro-2H-1-benzopyran-2-yl]benzoic acid]
8 | < 4.70 | 3.5% | Cc1ccccc1C(C)(C)C(=O)N[C@@H]1C[C@H](c2cccc(C(=O)O)c2)Oc2ccccc21 [Example 49, 3-{(2R,4R)-4-[2-methyl-2-(2-methylphenyl)propanamido]-3,4-dihydro-2H-1-benzopyran-2-yl}benzoic acid]
9 | < 4.70 | 4.9% | COc1cccc2c1[C@](C)(C(=O)N[C@@H]1C[C@H](c3cccc(C(=O)O)c3)Oc3ccccc31)CC2 [Example 50, 3-[(2R,4R)-4-{[(1R)-7-methoxy-1-methyl-2,3-dihydro-1H-indene-1-carbonyl]amino}-3,4-dihydro-2H-1-benzopyran-2-yl]benzoic acid]
10 | 5.69 | 57.9% | CC(C)(C(=O)N[C@@H]1C[C@H](c2cccc(C(=O)O)c2)Oc2ccccc21)c1ccc(C(F)(F)F)cc1 [Example 51, 3-[(2R,4R)-4-{2-methyl-2-[4-(trifluoromethyl)phenyl]propanamido}-3,4-dihydro-2H-1-benzopyran-2-yl]benzoic acid]
11 | < 4.70 | 1.8% | CC(C)(C(=O)N[C@@H]1C[C@H](c2cccc(C(=O)O)c2)Oc2ccccc21)c1ccc(Cl)cc1Cl [Example 52, 3-{(2R,4R)-4-[2-(2,4-dichlorophenyl)-2-methylpropanamido]-3,4-dihydro-2H-1-benzopyran-2-yl}benzoic acid]
12 | < 4.70 | 1.2% | C[C@@]1(C(=O)N[C@@H]2C[C@H](c3cccc(C(=O)O)c3)Oc3ccccc32)CCc2ccc(Cl)cc21 [Example 53, 3-[(2R,4R)-4-{[(1R)-6-chloro-1-methyl-2,3-dihydro-1H-indene-1-carbonyl]amino}-3,4-dihydro-2H-1-benzopyran-2-yl]benzoic acid]
13 | < 4.70 | 10.4% | C[C@]1(C(=O)N[C@@H]2C[C@H](c3cccc(C(=O)O)c3)Oc3ccccc32)CCc2ccc(Cl)cc21 [Example 54, 3-[(2R,4R)-4-{[(1S)-6-chloro-1-methyl-2,3-dihydro-1H-indene-1-carbonyl]amino}-3,4-dihydro-2H-1-benzopyran-2-yl]benzoic acid]
14 | 5.57 | 49.9% | CC1(C(=O)N[C@@H]2C[C@H](c3cccc(C(=O)O)c3)Oc3ccccc32)CCc2cc(OC(F)(F)F)ccc21 (stereo partly drawn) [Example 55, 3-[(2R,4R)-4-{[1-methyl-5-(trifluoromethoxy)-2,3-dihydro-1H-indene-1-carbonyl]amino}-3,4-dihydro-2H-1-benzopyran-2-yl]benzoic acid]
15 | 5.89 | 71.4% | COc1ccc2c(c1)OCC2(C)C(=O)N[C@@H]1C[C@H](c2cccc(C(=O)O)c2)Oc2ccccc21 (stereo partly drawn) [Example 56, 3-{(2R,4R)-4-[(6-methoxy-3-methyl-2,3-dihydro-1-benzofuran-3-carbonyl)amino]-3,4-dihydro-2H-1-benzopyran-2-yl}benzoic acid]
16 | < 4.70 | 2.3% | COC(=O)c1cccc([C@H]2C[C@@H](NC(=O)C3(C)CCc4ccc(OC(F)(F)F)cc43)c3ccc(OC)cc3O2)c1 (stereo partly drawn) [Example 57, methyl 3-[(2R,4R)-7-methoxy-4-{[1-methyl-6-(trifluoromethoxy)-2,3-dihydro-1H-indene-1-carbonyl]amino}-3,4-dihydro-2H-1-benzopyran-2-yl]benzoate]
17 | 5.65 | 20.4% | COc1ccc2c(c1)O[C@@H](c1cccc(C(=O)O)c1)C[C@H]2NC(=O)C1(C)CCc2ccc(OC(F)(F)F)cc21 (stereo partly drawn) [Example 58, 3-[(2R,4R)-7-methoxy-4-{[1-methyl-6-(trifluoromethoxy)-2,3-dihydro-1H-indene-1-carbonyl]amino}-3,4-dihydro-2H-1-benzopyran-2-yl]benzoic acid]
18 | < 4.70 | 1.8% | COC(=O)c1ccc([C@H]2C[C@@H](NC(=O)[C@@]3(C)CCc4cc(Cl)ccc4O3)c3ccccc3O2)cc1 [Example 59, methyl 4-[(2R,4R)-4-{[(2R)-6-chloro-2-methyl-3,4-dihydro-2H-1-benzopyran-2-carbonyl]amino}-3,4-dihydro-2H-1-benzopyran-2-yl]benzoate]
19 | < 4.70 | 2.3% | C[C@]1(C(=O)N[C@@H]2C[C@H](c3ccc(C(=O)O)cc3)Oc3ccccc32)CCc2cc(Cl)ccc2O1 [Example 60, 4-[(2R,4R)-4-{[(2R)-6-chloro-2-methyl-3,4-dihydro-2H-1-benzopyran-2-carbonyl]amino}-3,4-dihydro-2H-1-benzopyran-2-yl]benzoic acid]
20 | 5.23 | 20.0% | COC(=O)c1ccc([C@H]2C[C@@H](NC(=O)[C@]3(C)CCc4cc(Cl)ccc4O3)c3ccccc3O2)cc1 [Example 61, methyl 4-[(2R,4R)-4-{[(2S)-6-chloro-2-methyl-3,4-dihydro-2H-1-benzopyran-2-carbonyl]amino}-3,4-dihydro-2H-1-benzopyran-2-yl]benzoate]
21 | 5.58 | 22.6% | C[C@@]1(C(=O)N[C@@H]2C[C@H](c3ccc(C(=O)O)cc3)Oc3ccccc32)CCc2cc(Cl)ccc2O1 [Example 62, 4-[(2R,4R)-4-{[(2S)-6-chloro-2-methyl-3,4-dihydro-2H-1-benzopyran-2-carbonyl]amino}-3,4-dihydro-2H-1-benzopyran-2-yl]benzoic acid]
